From patent US20110251143A1, “STABLE ELSAMITRUCIN SALT FORMULATIONS” (Spectrum Pharmaceuticals, Inc., priority 2007, published 2011)

Tests used:
[1] = tested on: MCF7; conditions: ER+ MCF7 cell line; cited from earlier work
[2] = patients with refractory/relapsed non-Hodgkin's lymphoma; cited from earlier work
[3] = tested on: SK-MES-1 human non-small cell lung carcinoma; test: MTT cell growth inhibition, SK-MES-1; assay type: cell-based; conditions: Homo sapiens; SK-MES-1, MTT, 5-10 days
Protocol: (§1) The following experiment confirms that the elsamitrucin salts made in accordance with the teachings of the present disclosure retain their in vitro anti-neoplastic activity when compared to elsamitrucin base. Elsamitrucin and elsamitrucin tosylate were tested in vitro using: B16F10 (murine […]), HCT 116 (human colon), HT29 (human colon) and SK-MES-1 (human non-small cell lung carcinoma). Cell growth inhibition was evaluated in 96-well micro-culture plates with a semi-automated MTT (3-(4,5-dimethylthiazol-2-yl)-2,5-diphenyltetrazolium bromide) assay. […]
(§2) Cell culture plates seeded with test cells and various concentrations of elsamitrucin solutions were placed in a humidified incubator at 37° C., with CO2 and 95% air for 5-10 days. […] Absorbance was monitored at a wavelength of 595 nm, and at a reference wavelength of 650 nm, using a TECAN® GENios mocroplate reader. In all experiments, absorbance data was acquired for each agent at two overlapping concentration ranges. […]
(§3) The results of each test were stored and imported into PRISM® 3.03 for graphical analysis and determination of IC50 values. All results were graphed as a percentage of controlled absorbance versus the drug concentration. […]

[4] = tested on: HCT 116 human colon carcinoma; test: MTT cell growth inhibition, HCT 116; assay type: cell-based; conditions: Homo sapiens; HCT 116, MTT, 5-10 days
Protocol: as §1, §2, §3

[5] = tested on: ER− tumors; conditions: clinical specimens; cited from earlier work
[6] = tested on: MDA-MB-231; conditions: ER− MDA-MB-231 cell line; cited from earlier work
[7] = tested on: HT29 human colon carcinoma; test: MTT cell growth inhibition, HT29; assay type: cell-based; conditions: Homo sapiens, HT-29, 5-10 days
Protocol: as §1, §2, §3

[8] = tested on: ER+ tumors; conditions: clinical specimens; cited from earlier work
[9] = tested on: B16F10 murine melanoma cells; test: MTT cell growth inhibition, B16F10; assay type: cell-based; conditions: Mus musculus, B16-F10, 5-10 days
Protocol: as §1, §2, §3

[10] = stability study of Elsamitrucin F2 RTU, impurities profile by HPLC;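 also: formulation kept in nitrogen-flushed sealed amber vials, sampled at time points, diluted to roughly 0.1 mg/mL and analysed by gradient HPLC on a C18 column, water/acetonitrile with trifluoroacetic acid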
Protocol: Design of the Stability Study: 250 mL of Elsamitrucin Tosylate stock solution (10 mg/mL free base, 4.77% Mannitol, pH 4.0) was prepared. 80×5 mL amber serum vials were filled with 2.5 mL of the Elsamitrucin Tosylate stock solution, flushed with nitrogen and sealed with stoppers. These sealed vials, in both upright and inverted positions, were stored in the following temperature cabinets at 4, 25, 40 and 60° C., respectively. […] Samples were removed for pH measurement and high performance liquid chromatography (HPLC) analysis at the various time points. At 60° C., measurements were made at 0, 2, 7, 10, 14 days. At 40° C., measurements were made at 0, 7, 14, 28, 38, 64, 77, 84 days. At 25° C., measurements were made at 0, 7, 14, 28, 64, 84 days. At 4° C., measures were made at 0, 7, 14, 28, 64, 84 days.
For the present stability study HPLC weight/weight assay of elsamitrucin was done in addition to the determination of related impurities. The reagents for the HPLC assay are as follows—HPLC grade acetonitrile and trifluoroacetic acid (Lot #44093418) were obtained from EMD Science. Water was purified with Millipore Milli-Q system. The apparatus was the chromatographic system which consisted of a Waters Alliance 2695 separation module equipped with a column heater, an autosampler and a Waters 2996 photodiode array detector. Data acquisition was controlled by Waters Empower Pro 2 software. As the column a Cadenza Cd-C18, 3 μm, 4.6×150 mm (Silverstone Sciences) was used. Detection was made at 267 nm. Mobile phase A contained water with 0.1% trifluoroacetic acid. 2 mL of trifluoroacetic acid was pipetted to 2000 mL of water. Mobile phase B contained acetonitrile with 0.08% trifluoroacetic acid. 1 mL of trifluoroacetic acid was pipetted to 1250 mL of acetonitrile. 1 L of water was mixed thoroughly with 1 L of acetonitrile.
HPLC analysis was run with a gradient at flow rate equal to 1.0 mL/min. The oven temperature was set at 40° C. The autosampler temperature was at 25° C. The injection volume was 10 μL. Sample Diluent—Acetonitrile/water (50/50, v/v): 1 L of water was mixed thoroughly with 1 L of acetonitrile. Sample Blank—Acetonitrile/water (50/50, v/v): Sample Diluent was used as Sample Blank. Standard Solution—˜0.1 mg/mL of Elsamitrucin: 26.32 mg of Elsamitrucin Tosylate was accurately weighed and dissolved in a 200 mL of Sample Diluent in a 200 mL volumetric flask. Sample Solution Preparation (one vial per time point): 2 mL of Elsamitrucin RTU solution was pipetted to a 20 mL volumetric flask and diluted with 18 mL of Sample Diluent. 2 mL of the diluted solution was further diluted with 18 mL of Sample Diluent in a 20 mL volumetric flask to give the final analytical sample (with concentration at about 0.1 mg/mL). The retention time for Elsamitrucin was about 11.7 minutes.

[11] = tested on: MCF7DX; conditions: MCF7DX subline; cited from earlier work

CO[C@H]1[C@@H](O)[C@@H](C)OC(O[C@H]2[C@H](Oc3cccc4c(O)c5c(=O)oc6ccc(C)c7c(=O)oc(c34)c5c67)O[C@H](C)[C@H](O)[C@]2(C)O)[C@@H]1N (stereo partly drawn) [Elsamitrucin, benzo(h)(1)benzopyrano(5,4,3-cde)(1)ebnzopyran-5,12-dione,10((2-O-(2-amino-2,6-dideoxy-3-O-methyl-alpha-D-galactopyranosyl)-6-deoxy-3-C-methyl-beta-D-galactopyranosyl)oxy)-6-hydroxy-1-methyl]
IC50 antiproliferative effect [1]: 0.25 micrograms/ml
elsamtrucin-associated toxicity [2]: relatively mild
IC50 [3]: 42 nM
IC50 [4]: 74 nM
minimal inhibiting concentrations [5]: 3.5 micrograms/ml
IC50 antiproliferative effect [6]: 0.21 micrograms/ml
IC50 [7]: 95 nM
minimal inhibiting concentrations [8]: 0.1 micrograms/ml
IC50 [9]: 24 nM
Area Percent of HPLC peak ([10]; 10 mg/mL ELSA RTU Formulation 2, inverted, 5° C., Day 7): 97.89 Area Percent
Area Percent of HPLC peak ([10]; 10 mg/mL ELSA RTU Formulation 2, inverted, 5° C., Day 14): 97.70 Area Percent
Area Percent of HPLC peak ([10]; 10 mg/mL ELSA RTU Formulation 2, inverted, 5° C., Day 28): 98.41 Area Percent
Area Percent of HPLC peak ([10]; 10 mg/mL ELSA RTU Formulation 2, inverted, 5° C., Day 64): 97.54 Area Percent
Area Percent of HPLC peak ([10]; 10 mg/mL ELSA RTU Formulation 2, inverted, 5° C., Day 84): 98.15 Area Percent
Area Percent of HPLC peak ([10]; 10 mg/mL ELSA RTU Formulation 2, inverted, 5° C., Initial): 97.63 Area Percent
Area Percent of HPLC peak ([10]; 10 mg/mL ELSA RTU Formulation 2, inverted, 25° C., Day 7): 97.71 Area Percent
Area Percent of HPLC peak ([10]; 10 mg/mL ELSA RTU Formulation 2, inverted, 25° C., Day 14): 97.73 Area Percent
Area Percent of HPLC peak ([10]; 10 mg/mL ELSA RTU Formulation 2, inverted, 25° C., Day 28): 98.37 Area Percent
Area Percent of HPLC peak ([10]; 10 mg/mL ELSA RTU Formulation 2, inverted, 25° C., Day 64): 97.42 Area Percent
Area Percent of HPLC peak ([10]; 10 mg/mL ELSA RTU Formulation 2, inverted, 25° C., Day 84): 97.28 Area Percent
Area Percent of HPLC peak ([10]; 10 mg/mL ELSA RTU Formulation 2, inverted, 25° C., Initial): 97.63 Area Percent
Area Percent of HPLC peak ([10]; 10 mg/mL ELSA RTU Formulation 2, inverted, 40° C., Day 7): 97.75 Area Percent
Area Percent of HPLC peak ([10]; 10 mg/mL ELSA RTU Formulation 2, inverted, 40° C., Day 14): 97.64 Area Percent
Area Percent of HPLC peak ([10]; 10 mg/mL ELSA RTU Formulation 2, inverted, 40° C., Day 28): 97.70 Area Percent
Area Percent of HPLC peak ([10]; 10 mg/mL ELSA RTU Formulation 2, inverted, 40° C., Day 38): 98.04 Area Percent
Area Percent of HPLC peak ([10]; 10 mg/mL ELSA RTU Formulation 2, inverted, 40° C., Day 64): 97.04 Area Percent
Area Percent of HPLC peak ([10]; 10 mg/mL ELSA RTU Formulation 2, inverted, 40° C., Day 77): 96.84 Area Percent
Area Percent of HPLC peak ([10]; 10 mg/mL ELSA RTU Formulation 2, inverted, 40° C., Day 84): 96.64 Area Percent
Area Percent of HPLC peak ([10]; 10 mg/mL ELSA RTU Formulation 2, inverted, 40° C., Initial): 97.63 Area Percent
Area Percent of HPLC peak ([10]; 10 mg/mL ELSA RTU Formulation 2, inverted, 60° C., Day 2): 97.73 Area Percent
Area Percent of HPLC peak ([10]; 10 mg/mL ELSA RTU Formulation 2, inverted, 60° C., Day 7): 96.86 Area Percent
Area Percent of HPLC peak ([10]; 10 mg/mL ELSA RTU Formulation 2, inverted, 60° C., Day 10): 96.82 Area Percent
Area Percent of HPLC peak ([10]; 10 mg/mL ELSA RTU Formulation 2, inverted, 60° C., Day 14): 96.03 Area Percent
Area Percent of HPLC peak ([10]; 10 mg/mL ELSA RTU Formulation 2, inverted, 60° C., Initial): 97.63 Area Percent
Area Percent of HPLC peak ([10]; 10 mg/mL ELSA RTU Formulation 2, upright, 5° C., Day 7): 97.86 Area Percent
Area Percent of HPLC peak ([10]; 10 mg/mL ELSA RTU Formulation 2, upright, 5° C., Day 14): 97.63 Area Percent
Area Percent of HPLC peak ([10]; 10 mg/mL ELSA RTU Formulation 2, upright, 5° C., Day 28): 97.63 Area Percent
Area Percent of HPLC peak ([10]; 10 mg/mL ELSA RTU Formulation 2, upright, 5° C., Day 64): 97.39 Area Percent
Area Percent of HPLC peak ([10]; 10 mg/mL ELSA RTU Formulation 2, upright, 5° C., Day 84): 97.33 Area Percent
Area Percent of HPLC peak ([10]; 10 mg/mL ELSA RTU Formulation 2, upright, 5° C., Initial): 97.63 Area Percent
Area Percent of HPLC peak ([10]; 10 mg/mL ELSA RTU Formulation 2, upright, 40° C., Day 7): 97.77 Area Percent
Area Percent of HPLC peak ([10]; 10 mg/mL ELSA RTU Formulation 2, upright, 40° C., Day 14): 97.71 Area Percent
Area Percent of HPLC peak ([10]; 10 mg/mL ELSA RTU Formulation 2, upright, 40° C., Day 28): 97.62 Area Percent
Area Percent of HPLC peak ([10]; 10 mg/mL ELSA RTU Formulation 2, upright, 40° C., Day 38): 97.76 Area Percent
Area Percent of HPLC peak ([10]; 10 mg/mL ELSA RTU Formulation 2, upright, 40° C., Day 64): 96.86 Area Percent
Area Percent of HPLC peak ([10]; 10 mg/mL ELSA RTU Formulation 2, upright, 40° C., Day 77): 96.80 Area Percent
Area Percent of HPLC peak ([10]; 10 mg/mL ELSA RTU Formulation 2, upright, 40° C., Day 84): 97.31 Area Percent
Area Percent of HPLC peak ([10]; 10 mg/mL ELSA RTU Formulation 2, upright, 40° C., Initial): 97.63 Area Percent
Area Percent of HPLC peak ([10]; 10 mg/mL ELSA RTU Formulation 12, upright, 25° C., Day 7): 97.86 Area Percent
Area Percent of HPLC peak ([10]; 10 mg/mL ELSA RTU Formulation 12, upright, 25° C., Day 14): 97.67 Area Percent
Area Percent of HPLC peak ([10]; 10 mg/mL ELSA RTU Formulation 12, upright, 25° C., Day 28): 98.32 Area Percent
Area Percent of HPLC peak ([10]; 10 mg/mL ELSA RTU Formulation 12, upright, 25° C., Day 64): 97.68 Area Percent
Area Percent of HPLC peak ([10]; 10 mg/mL ELSA RTU Formulation 12, upright, 25° C., Day 84): 98.08 Area Percent
Area Percent of HPLC peak ([10]; 10 mg/mL ELSA RTU Formulation 12, upright, 25° C., Initial): 97.63 Area Percent
Area Percent of HPLC peak ([10]; 10 mg/mL ELSA RTU Formulation 12, upright, 60° C., Day 2): 97.83 Area Percent
Area Percent of HPLC peak ([10]; 10 mg/mL ELSA RTU Formulation 12, upright, 60° C., Day 7): 96.93 Area Percent
Area Percent of HPLC peak ([10]; 10 mg/mL ELSA RTU Formulation 12, upright, 60° C., Day 10): 95.99 Area Percent
Area Percent of HPLC peak ([10]; 10 mg/mL ELSA RTU Formulation 12, upright, 60° C., Day 14): 95.79 Area Percent
Area Percent of HPLC peak ([10]; 10 mg/mL ELSA RTU Formulation 12, upright, 60° C., Initial): 97.63 Area Percent
cross-resistance to DX [11]: cross-resistant
